Like-named read-outs stand apart in the source and are kept apart here.

The IC50 is the concentration that inhibits the measured activity by half.

Experiment [1] deals with LS180. The experiment in a line: Soft agar colony formation disk diffusion assay. Format: cell-based, human. In a few lines: (§1)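 Cells were suspended at 10^4 to 2×10^5 per dish in 0.4% Noble agar in RPMI-1066 over a 0.8% agar/Tryptic Soy Broth bottom layer. Compound in DMSO/water was dried onto a 6.5 mm paper disk placed on the upper layer. Read-out was the zone of inhibition from disk edge to nearest colonies (>50 cells), measured by ocular micrometer.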
On the technique in general: A growth-free zone around the sample is the usual read-out of agar diffusion tests.

For experiment [2], the system named is MCF7/ADR. The experiment in a line: Soft agar colony formation disk diffusion assay. Format: cell-based, human. In short, it runs like this:
as §1

Experiment [3] concerns MCF7. The experiment can be described thus: Soft agar colony formation disk diffusion assay. Format: cell-based, human. In short, it runs like this: as §1
Experiment [4] relates to HT29. The experiment can be described thus: Soft agar colony formation disk diffusion assay. Format: cell-based, human. In short, it runs like this: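 Cells were plated at 10^4–2×10^5 cells per dish in a 0.4% Noble agar upper layer over 0.8% agar. The compound (DMSO/water solution) was applied on a 6.5 mm filter disk, and plates were incubated at 37 °C, 5% CO2 for 10–20 days. Anti-clonogenic activity was measured microscopically as the inhibition zone from the disk edge to the nearest colonies (>50 cells).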

The test system of experiment [5] is SKOV3. The experiment can be described thus: Microculture tetrazolium assay. Type of experiment: cell-based. The settings on record: read-out: IC50.
The test system of experiment [6] is SKVLB. The experiment in a line: Microculture tetrazolium assay. The following applies: for VLB/OV3: IC50 ratio SKVLB/SKOV3; for IC50: SKVLB, read-out: IC50. Type of experiment: cell-based.
The test system of experiment [7] is T47D. The experiment in a line: Microculture tetrazolium assay. Type of experiment: cell-based. The following applies: read-out: IC50.
The subject of experiment [8] is HT29. The experiment can be described thus: Microculture tetrazolium assay. Format: cell-based. The following applies: read-out: IC50.

Regarding `COC(=O)[C@@H]1CC2=C(C(=O)c3c(cc4ccccc4c3O)C2=O)[C@@H](O[C@H]2C[C@H](NC(=O)C(F)(F)F)[C@H](O)[C@H](C)O2)O1` [BCH-691, (1'S,1R,3S)-Methyl-{11-hydroxy-1-(2',3',6'-trideoxy-3'-trifluoroacetamido-4'-hydroxy-L-lyxoheoxpyranose)-5,12-dioxo-3,4,5,12-tetrahydroanthraceno[2,3-c]pyran-3-yl}formate], the zone of inhibition in experiment [1] (10 μg/DISK) worked out at 148.5 ± 4.9 Zone Units; in experiment [1] (100 μg/DISK), 287.0 ± 80.3 Zone Units; in experiment [2] (10 μg/DISK), 115.5 ± 9.1 Zone Units; in experiment [2] (100 μg/DISK) it was 213.5 ± 43.1 Zone Units; in experiment [3] (10 μg/DISK), 186.5 ± 4.9 Zone Units; in experiment [3] (100 μg/DISK), 417.5 ± 99.7 Zone Units. Also, the zone of inhibition in experiment [4] (10 μg/DISK) was 137.0 ± 21.2 Zone Units; in experiment [4] (100 μg/DISK) it was 198.0 ± 21.2 Zone Units. In addition, the 50% inhibitory concentration (IC50) turned out to be 1.27 µM in experiment [5] (Homo sapiens, SK-OV-3, SKOV3); 1.41 µM in experiment [6]; 2.25 µM in experiment [7] (Homo sapiens); 0.301 µM in experiment [8] (Homo sapiens, HT-29, HT29). Further, in experiment [6], the VLB/OV3 is 1.11.

On to `CC(=O)Oc1c2c(c(O)c3ccccc13)C(=O)C1=C(C2=O)C(O)OC(C(C)=O)C1` (stereo not drawn) [BCH-704, Methyl(11-acetoxy-1,6-dihydroxy-5,12-dioxo-3,4,5,12-tetrahydroanthraceno[2,3-c]pyran-3-yl)ketone], for which the zone of inhibition in experiment [1] (10 μg/DISK) is reported as 38.3 ± 2.4 Zone Units; in experiment [1] (100 μg/DISK), 131.1 ± 31.1 Zone Units; in experiment [2] (10 μg/DISK), 122.0 ± 25.8 Zone Units; in experiment [2] (100 μg/DISK) it was 323.0 ± 16.8 Zone Units; in experiment [3] (10 μg/DISK), 183.0 ± 10.8 Zone Units; in experiment [3] (100 μg/DISK), 320.5 ± 21.5 Zone Units. Besides, the zone of inhibition is recorded as 39.6 ± 12.9 Zone Units in experiment [4] (10 μg/DISK) and 152.5 ± 43.1 Zone Units in experiment [4] (100 μg/DISK). Also, the IC50 in experiment [5] (Homo sapiens, SK-OV-3, SKOV3) was determined as 16.4 µM; in experiment [6], 13.8 µM; in experiment [7] (Homo sapiens), 11.8 µM; in experiment [8] (Homo sapiens, HT-29, HT29), 10.7 µM. Further, in experiment [6], the VLB/OV3 is 0.84.

With `CCOC(=O)C1Cc2c(c(OC)c3c(c2OC)C(=O)c2ccccc2C3=O)CS1` (stereo not drawn) [BCH-717], the zone of inhibition was 0 Zone Units in experiment [1] (10 μg/DISK); 61.0 ± 0.0 Zone Units in experiment [1] (100 μg/DISK); 0 Zone Units in experiment [2] (10 μg/DISK); 0 Zone Units in experiment [2] (100 μg/DISK); 0 Zone Units in experiment [3] (10 μg/DISK); 0 Zone Units in experiment [3] (100 μg/DISK). Moreover, the zone of inhibition in experiment [4] (10 μg/DISK) and in experiment [4] (100 μg/DISK) was 0 Zone Units in each case. For the same molecule, the concentration for half-maximal inhibition (IC50) in experiment [5] (Homo sapiens, SK-OV-3, SKOV3) is above 100 µM; in experiment [6], above 100 µM; in experiment [7] (Homo sapiens), above 100 µM; in experiment [8] (Homo sapiens, HT-29, HT29), above 100 µM.

As for `CC(=O)Oc1c2c(c(O)c3ccccc13)C(=O)C1=C(CC(C(C)=O)OC1)C2=O` (stereo not drawn) [BCH-721], the zone of inhibition turned out to be 18.9 Zone Units in experiment [1] (10 μg/DISK); 122.0 ± 0.0 Zone Units in experiment [1] (100 μg/DISK); 91.0 ± 86.2 Zone Units in experiment [2] (10 μg/DISK); 183.0 ± 86.2 Zone Units in experiment [2] (100 μg/DISK); 55.0 ± 8.4 Zone Units in experiment [3] (10 μg/DISK); 167.0 ± 21.9 Zone Units in experiment [3] (100 μg/DISK). The zone of inhibition in experiment [4] (10 μg/DISK) stood at 55.5 ± 8.0 Zone Units; in experiment [4] (100 μg/DISK) it was 121.5 ± 43.1 Zone Units. Further, the IC50 came to 55.8 µM in experiment [5] (SKOV3), 30.7 µM in experiment [6], 47.8 µM in experiment [7] and 23.4 µM in experiment [8] (HT29). The VLB/OV3 in experiment [6] was 0.55.

(Values after US5593970A, “Heterocyclic anthracycline analogs” (priority 1994, dated 1997).)
